Results reported in patent US20110039869A1, “COMPOSITION FOR INHIBITING THE ACTIVITY OF INOSITOL 1,4,5-TRIPHOSPHATE RECEPTOR SUBTYPE III” (Korea Institute of Science and Technology, priority 2008, published 2011).
Entries after “also recorded” stand apart in the source; their conditions may differ. Read-outs that look alike come from different tables or passages of the source.

How the values were obtained:
[1] = system: U178MG cells; experiment: Ca2+ imaging: block against agonist-induced intracellular Ca2+ release in U178MG cells; format: cell-based, human; details: for TFLLR induced Ca2+ release: 10 mM compound; for IC50: Homo sapiens, U178MG cells
Description: 100 seconds after the treatment, the cells were divided into two separate groups, each being stimulated with GPCR (G-protein coupled receptors) agonists, i.e., […] or 10 μM bradykinin, respectively. […] The measurement of Ca^2+ concentration through the measurement of inward current was conducted as described in ‘Justin Lee, et al., The Journal of Physiology, Astrocytic control of synaptic NMDA receptor, 2007’, which is hereby incorporated by reference for all purposes as if fully set forth herein.
After 100 seconds, the cells were stimulated with 30 μM TFLLR.
Error bars indicate SEM. […] Such substance may include: iso-propyl theophylline, 7-(β-3-hydroxyethyl)theophylline, xanthine, theophylline, and 1,7-dimethyl-3-isobutyl xanthine.

[2] = system: U178MG, U87MG, wtEGFR, and ΔEGRF cells; experiment: Scrape motility assay; format: cell-based, human; details: 24 hours; 10 mM caffeine, 1 μM thapsigargin, 10 μM 2-APB, 20 μM CPA, 50 μM BAPTA-AM, 10 μM ryanodine
Description: The cell lines were obtained from Emory Uni (U178MG) and ATCC (U87MG, T98G, and M59K). All cell lines were grown as monolayers in 12-well culture plates in serum-containing media (Emory Uni). […] To prevent proliferation, fluorodeoxyuridine (FdU/U; Sigma) was added. After incubation for 24 hours, the cells were fixed in 4% paraformaldehyde. The area of repopulation of three 10× fields within the scrape areas were determined and the mean percentage of scrape area to wound closure was determined.

[3] = system: U178MG glioma cells; experiment: Invasion of U178MG glioma cells in organotypic hippocampal slice cultures (OHSCs); format: cell-based, human; details: 1, 2, 5, 10 mM caffeine; 120 hours vs 1 hour; proportional to concentration
[4] = system: glioma; experiment: Soft agar assay (colony formation); format: cell-based, human; details: 0.5, 1, 2, 5, 10 mM caffeine; 14 to 17 days; dose dependent
Description: Cells (1×10^4) were seeded into 6-well plates in a soft agar (0.3%, Difco) overlaying a 0.6% base agar. […] Cells were incubated at 37° C. for 14 to 17 days to allow colonies to develop. Afterward colonies were stained with 0.05% cresyl violet and photographed. The group without caffeine treatment was used as a control. Each assay was done in triplicate (n=3).

[5] = system: U87MG cells; experiment: Orthotropic implantation model, survival rate; details: 1 mg/ml caffeine containing drinking water
[6] = system: U178MG cells; experiment: Live imaging of cell migration; format: cell-based, human; details: 10 minute intervals for 9 hours
[7] = system: U178MG, U87MG, U373MG, and T98G cells; experiment: Matrigel invasion assay; format: cell-based, human; details: 24 h; 1, 2, 5, 10 mM caffeine; dose dependent
Description: The cell lines were obtained from ATCC. […] Cell invasion was assayed using transwell inserts (Corning, N.Y., USA) containing […] pore size in 24-well culture plates. For invasion assay, inserts were coated with 2 mg/ml basement membrane Matrigel (BD Bioscience, Bedford, Mass., USA). 1×10^5 cells in serum-free medium (FBS, DMEM, from GIBCO, Invitrogen, USA) were plated onto the upper side of insert and complete medium was placed in the lower chamber to act as a chemoattractant. After 24 h of incubation at 37° C., the cells on the upper side of insert were removed by wiping with a cotton swab and cells migrated to the lower side of membrane were stained with DAPI (Molecular Probes, Invitrogen, USA) and randomly photographed with microscopy at ×40 magnification. The mean number of untreated cells was considered as 100% invasion.

[8] = system: U87MG cells; experiment: Xenograft tumor growth assay; format: in vivo, athymic mice (Balb/c nu/nu); details: caffeine 1 mg/ml in drinking water from day 7; 4 weeks
Description: Five-week-old athymic mice (Balb/c nu/nu) were obtained from Central Lab. Animal Inc. (Japan). For the xenograft tumor growth assay, U87MG cells (3×10^5 cells/150 ul PBS) were injected subcutaneously into the right flanks of the mice (n=5 to 10 mice per group), and the experiment was conducted in triplicate. […] The control animals were given distilled water. Tumor mass was estimated twice per week for 4 weeks, and tumor volumes were calculated by the formula: […]

[9] = system: GBM, U178MG, T98G, U87MG and HEK293; experiment: Block against GPCR agonist-induced intracellular Ca2+ release in various cell types; format: cell-based, human; details: 10 mM caffeine
Description: The cell lines were obtained from Department of Neurosurgery, Seoul National University College of Medicine (GBM), Emory Uni. ([…]) and ATCC (T98G, U87MG, and HEK293), respectively. […] Error bars are mean±SEM.

[10] = system: U178MG cells; experiment: Dependence of caffeine action on store-operated channels or store depletion; format: cell-based, human; details: 10 mM caffeine; thapsigargin 1 μM, cyclopiazonic acid 20 μM
Description: Firstly, 1 μM thapsigargin was applied for 2 min in Ca^2+ free HEPES buffer. After depletion of Ca^2+ from endoplasmic reticulum, extra solution was changed to 2 mM Ca^2+HEPES buffer.

[11] = system: shRNA for IP3R3 expressing U178MG cells; experiment: Block against Ca2+ responses in U178MG cells expressing shRNA for IP3R3; format: cell-based, human
Description: FIGS. 6d and 6e are Ca^2+ imaging result for U178MG cells, which were transfected with GFP-attached shRNA for IP3R3 via electroporation.

CC(C)Cn1c(=O)n(C)c(=O)c2c1ncn2C [1,7-dimethyl-3-isobutyl xanthine]
blocking effect on IP3R3 mediated-Ca2+ response ([1]; caffeine analogs, FIG. 10c): excellent selective blocking effect

CC(=O)OCOC(=O)CN(CC(=O)OCOC(C)=O)c1ccccc1OCCOc1ccccc1N(CC(=O)OCOC(C)=O)CC(=O)OCOC(C)=O [BAPTA-AM]
motility (wound closure by cell migration) [2]: mimicked

NCCOB(c1ccccc1)c1ccccc1 [2-APB]
motility (wound closure by cell migration) [2]: mimicked

CCn1cnc2c1c(=O)n(C)c(=O)n2C [7-ethyl theophylline]
TFLLR induced Ca2+ release ([1]; 30 μM TFLLR): no inhibition

Cn1c(=O)c2[nH]cnc2n(C)c1=O [theophylline]
blocking effect on IP3R3 mediated-Ca2+ response ([1]; caffeine analogs, FIG. 10c): excellent selective blocking effect

ryanodine
motility (wound closure by cell migration) [2]: did not show any cell migration as such

O=c1[nH]c(=O)c2[nH]cnc2[nH]1 [xanthine]
blocking effect on IP3R3 mediated-Ca2+ response ([1]; caffeine analogs, FIG. 10c): excellent selective blocking effect

Cn1c(=O)c2c(ncn2CCO)n(C)c1=O [7-(β-3-hydroxyethyl)theophylline]
blocking effect on IP3R3 mediated-Ca2+ response ([1]; caffeine analogs, FIG. 10c): excellent selective blocking effect

C/C=C(/C)C(=O)O[C@H]1C(C)=C2[C@H]([C@@H]1OC(=O)CCCCCCC)[C@@](C)(OC(C)=O)C[C@H](OC(=O)CCC)[C@@]1(O)[C@H]2OC(=O)[C@@]1(C)O [thapsigargin]
motility (wound closure by cell migration) [2]: mimicked | subsequent induction increase in [Ca2+]i by bradykinin after store depletion ([1]; store depletion by thapsigargin): completely inhibited

COc1ccc2c(c1)CC[C@@H]1[C@@H]2CC[C@]2(C)[C@@H](NCCCCCCN3C(=O)C=CC3=O)CC[C@@H]12 [U73122]
release of Ca2+ from intracellular stores in response to activation of GPCRs and RTKs ([1]; GBM cells): completely inhibited

Cn1c(=O)c2c(ncn2C)n(C)c1=O [caffeine]
invasion area of DiI-stained cells [3]: invasion area was reduced | proliferation / anchorage-independent growth (colonies) [4]: reduced the anchorage-independent growth; also recorded: significantly inhibited | increase of [Ca2+]i after stimulation with EGF or bradykinin ([1]; 10 mM caffeine, 100 ng/ml EGF or 10 μM bradykinin): no significant increase | TFLLR induced Ca2+ release ([1]; 30 μM TFLLR): inhibited | increase of TFLLR-induced intracellular Ca2+ concentration ([1]; 0.3, 3, 10, 30 mM caffeine, 30 μM TFLLR, concentration dependent): inhibits the increase | IC50 ([1]; EGF 100 ng/ml, read-out: IC50, Ca2+ release evoked by EGF): 1870 µM | IC50 ([1]; TFLLR 30 μM, read-out: IC50, Ca2+ release evoked by TFLLR): 2450 µM | survival rate [5]: significantly increase the survival rate | migration of U178MG cells [6]: significantly slowed down | invasion through Matrigel [7]: reduced the invasion rate; also recorded: significantly inhibited | increase of tumor mass [8]: significantly inhibited | GPCR-induced intracellular Ca2+ release in GBM, U178MG, T98G, U87MG and HEK293 [9]: inhibited | degree of inhibition of Ca2+ responses, U178MG cells compared with other cell types [9]: highest blocking effect | intracellular Ca2+ release ([9]; 10 μM bradykinin): blocked | intracellular Ca2+ release / Ca2+ responses, HEK293T cell line ([9]; 30 μM TFLLR): blocked; also recorded: lowest blocking effect | cause of Ca2+ block (store depletion, store-operated channels) [10]: not due to Ca^2+ depletion or block of Ca^2+ flow through TRPC | block against Ca2+ responses, IP3R3 silenced by shRNA [11]: 20%

CC(C)n1cnc2c1c(=O)n(C)c(=O)n2C [iso-propyl theophylline]
blocking effect against Ca2+ release (% block) ([1]; caffeine analogs, FIG. 10c): some degree of blocking effects | blocking effect on IP3R3 mediated-Ca2+ response ([1]; caffeine analogs, FIG. 10c): excellent selective blocking effect
